Assays:
Type in all cases: in vivo
Echinochloa crus-galli [1] = assay: Pre-emergence herbicidal action, ECHCG; set-up: key to Herbicidal action against ECHCG: % activity: 100 = plants have died, 0 = like control plants; details: for Herbicidal action against ECHCG: comparative experiment; for herbicidal activity ECHCG: dosage 320 g/ha, scored visually after 3 weeks vs untreated controls (100% = plants have died)
Outline: (§1)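 Seeds sown in sandy loam in pots and covered with soil; compounds formulated as WP or EC were sprayed onto the soil surface as aqueous suspension/emulsion at 600 to 800 l/ha water with 0.2% wetting agent. Greenhouse growth; visual damage scored after 3 weeks versus untreated controls (100% = plants died, 0% = like control).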

Polygonum convolvulus = assay: Pre-emergence herbicidal action, POLCO; details: dosage 320 g/ha, scored visually after 3 weeks vs untreated controls (100% = plants have died)
Outline: as §1

Setaria viridis = assay: Post-emergence herbicidal action, SETVI; set-up: key: % herbicidal action vs untreated; 100 = plants died, 0 = like control; details: for Herbicidal action against SETVI: comparative experiment
Outline: (§2)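 Treatment: post-emergence spray, one-leaf stage. Medium: sandy loam, greenhouse. Carrier: 600–800 l/ha water, 0.2% wetting agent. Read-out: visual % activity at ~3 weeks, untreated plants as reference.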

Lolium multiflorum = assay: Pre-emergence herbicidal action, LOLMU; details: dosage 320 g/ha, scored visually after 3 weeks vs untreated controls (100% = plants have died)
Description: 1. Pre-Emergence Herbicidal Action Against Harmful Plants Seeds of monocotyledonous and dicotyledonous weed plants and crop plants are laid out in sandy loam soil in wood-fiber pots and covered with soil. The compounds of the invention, formulated in the form of wettable powders (WP) or as emulsion concentrates (EC), are then applied to the surface of the covering soil in the form of an aqueous suspension or emulsion at a water application rate equating to 600 to 800 l/ha, with addition of 0.2% wetting agent. After the treatment, the pots are placed in a greenhouse and kept under good growth conditions for the trial plants. The damage to the test plants is scored visually after a test period of 3 weeks by comparison with untreated controls (herbicidal activity in percent (%): 100% activity=the plants have died, 0% activity=like control plants). […] The tables below illustrate, in an exemplary manner, the […] herbicidal action of the compounds according to the invention, the herbicidal activity being stated in percent. [table] In the experiments that follow, herbicidal action of numerous inventive compounds and the known compounds that are structurally closest from D1 (WO 2012/028579 A1) and D2 (WO 2018/202535 A1) were compared under the above-specified conditions by the pre-emergence and post-emergence method. The example numbers given in the tables relate to the compounds disclosed in the respective documents. In addition to the compounds disclosed in D1 and D2, the following compounds V-1 to V-14 that are encompassed by D1 or D2 but are not compounds specified therein were used in the comparative experiments: • V-1: 2-(methylsulfanyl)-3-(methylsulfinyl)-N-(1-methyl-1H-tetrazol-5-yl)-4-(trifluoromethyl)benzamide • V-2: 2-(methylsulfanyl)-3-(methylsulfonyl)-N-(1-methyl-1H-tetrazol-5-yl)-4-(trifluoromethyl)benzamide • V-3: 2,3-bis(ethylsulfanyl)-N-(1-methyl-1H-tetrazol-5-yl)-4-(trifluoromethyl)benzamide • V-4: 2-chloro-3-(ethylsulfanyl)-N-(1-methyl-1H-tetrazol-5-yl)-4-(trifluoromethyl)benzamide • V-5: 2-chloro-4-iodo-3-(methylsulfanyl)-N-(1-methyl-1H-tetrazol-5-yl)benzamide • V-6: 2-chloro-4-iodo-3-(methylsulfinyl)-N-(1-methyl-1H-tetrazol-5-yl)benzamide • V-7: 2-chloro-4-iodo-3-(methylsulfonyl)-N-(1-methyl-1H-tetrazol-5-yl)benzamide • V-8: 2-bromo-3-(methylsulfanyl)-N-(1-methyl-1H-tetrazol-5-yl)-4-(trifluoromethyl)benzamide • V-9: 2-bromo-3-(methylsulfinyl)-N-(1-methyl-1H-tetrazol-5-yl)-4-(trifluoromethyl)benzamide • V-10: 2-bromo-3-(methylsulfonyl)-N-(1-methyl-1H-tetrazol-5-yl)-4-(trifluoromethyl)benzamide • V-11: 2-bromo-3-(ethylsulfanyl)-N-(1-methyl-1H-tetrazol-5-yl)-4-(trifluoromethyl)benzamide • V-12: 2-bromo-3-(ethylsulfinyl)-N-(1-methyl-1H-tetrazol-5-yl)-4-(trifluoromethyl)benzamide • V-13: 2-bromo-3-(ethylsulfonyl)-N-(1-methyl-1-1H-tetrazol-5-yl)-4-(trifluoromethyl)benzamide • V-14: 2-cyclopropyl-3-(ethylsulfanyl)-N-(1-methyl-1H-tetrazol-5-yl)-4-(trifluoromethyl)benzamide Herbicidal Pre-Emergence Action: […]

Matricaria inodora = assay: Pre-emergence herbicidal action, MATIN; set-up: key to Herbicidal action against MATIN: % activity: 100 = plants have died, 0 = like control plants; details: for herbicidal activity MATIN: dosage 320 g/ha, scored visually after 3 weeks vs untreated controls (100% = plants have died); for Herbicidal action against MATIN: comparative experiment
Outline: as §1

Echinochloa crus-galli [2] = assay: Post-emergence herbicidal action, ECHCG; set-up: key: % herbicidal action vs untreated; 100 = plants died, 0 = like control; details: for Herbicidal action against ECHCG: comparative experiment
Outline: as §2

[3] = post-emergence, 20 g of a.i./ha

Compound | Herbicidal action against ECHCG (Echinochloa crus-galli [1]; 80 g of a.i./ha) | herbicidal activity ECHCG (Echinochloa crus-galli [1]) | herbicidal activity POLCO (Polygonum convolvulus) | Herbicidal action against SETVI (Setaria viridis; [3]) | herbicidal action SETVI (Setaria viridis; post-emergence, dosage 80 g/ha) | herbicidal activity LOLMU (Lolium multiflorum) | herbicidal activity MATIN (Matricaria inodora) | Herbicidal action against ECHCG (Echinochloa crus-galli [2]; [3]) | herbicidal action ECHCG (Echinochloa crus-galli [2]; post-emergence, dosage 80 g/ha) | Herbicidal action against ECHCG (Echinochloa crus-galli [1]; 20 g of a.i./ha) | herbicidal action SETVI (Setaria viridis; Dosage 80 g/ha) | Herbicidal action against SETVI (Setaria viridis; post-emergence, 5 g of a.i./ha) | Herbicidal action against MATIN (Matricaria inodora; 20 g of a.i./ha) | herbicidal action ECHCG (Echinochloa crus-galli [2]; Dosage 80 g/ha) | Herbicidal action against ECHCG (Echinochloa crus-galli [2]; post-emergence, 5 g of a.i./ha) | Herbicidal action against MATIN (Matricaria inodora; 80 g of a.i./ha)
CC[S+]([O-])Cc1c(C(F)(F)F)ccc(C(=O)Nc2nnnn2C)c1Br (racemic) [Example 1-384] | 100 | 100% | 90% | 90 | 90% | 100% | 100% | 90 | 100% |  |  |  |  |  |  | 
CSCc1c(C(F)(F)F)ccc(C(=O)Nc2nnnn2C)c1C [Example 1-83] |  | 100% | 100% |  | 100% | 100% | 100% |  | 90% |  |  |  |  |  |  | 
CCSCc1c(C(F)(F)F)ccc(C(=O)Nc2nnnn2C)c1SCC [Example 1-182] |  | 100% | 100% |  |  | 90% | 100% |  |  | 80 | 90 | 70 | 80 | 90 | 80 | 
CCSCc1c(C(F)(F)F)ccc(C(=O)Nc2nnnn2C)c1Cl [Example 1-299] |  | 100% | 90% |  | 90% | 100% | 100% |  | 90% |  |  |  | 90 |  |  | 
Cn1nnnc1NC(=O)c1ccc(C(F)F)c(CS(C)(=O)=O)c1Cl [Example 1-322] |  | 100% | 100% |  | 100% | 100% | 100% |  | 100% |  |  |  |  |  |  | 
CCSCc1c(C(F)F)ccc(C(=O)Nc2nnnn2C)c1Cl [Example 1-323] |  | 100% | 100% |  | 100% | 100% | 90% |  | 100% |  |  | 100 |  |  |  | 
CCS(=O)(=O)Cc1c(C(F)F)ccc(C(=O)Nc2nnnn2C)c1Cl [Example 1-325] |  | 100% | 100% |  |  | 100% | 100% |  |  |  | 100 |  |  | 100 |  | 
CCSCc1c(C(F)(F)F)ccc(C(=O)Nc2nnnn2C)c1Br [Example 1-383] | 100 | 100% | 100% | 90 | 90% | 100% | 100% |  | 90% |  |  |  |  |  |  | 
CCS(=O)(=O)Cc1c(C(F)(F)F)ccc(C(=O)Nc2nnnn2C)c1Br [Example 1-385] | 100 | 100% | 90% | 90 | 100% | 100% | 100% | 90 | 90% |  |  |  |  |  |  | 100
CCn1nnnc1NC(=O)c1ccc(C(F)(F)F)c(CSC)c1Cl [Example 2-296] |  | 100% | 100% |  | 90% | 100% | 100% |  | 90% |  |  |  |  |  |  | 
CCn1nnnc1NC(=O)c1ccc(C(F)(F)F)c(C[S+](C)[O-])c1Cl (stereo not drawn) [Example 2-297] |  | 100% | 80% |  | 100% | 90% | 100% |  | 100% |  |  |  |  |  |  | 
CCn1nnnc1NC(=O)c1ccc(C(F)(F)F)c(CS(C)(=O)=O)c1Cl [Example 2-298] |  | 100% | 90% |  |  | 90% | 100% |  |  |  | 90 |  |  | 90 |  | 
CCSCc1c(C(F)(F)F)ccc(C(=O)Nc2nnnn2CC)c1Cl [Example 2-299] |  | 100% | 90% |  | 100% | 100% | 100% |  | 90% |  |  |  |  |  |  | 
CCn1nnnc1NC(=O)c1ccc(C(F)F)c(CSC)c1Cl [Example 2-320] |  | 100% | 90% |  |  | 90% | 100% |  |  |  | 100 |  |  | 100 |  | 
CCn1nnnc1NC(=O)c1ccc(C(F)F)c(CS(C)(=O)=O)c1Cl [Example 2-322] |  | 100% | 100% |  | 100% | 100% | 90% |  | 100% |  |  |  |  |  |  | 
CCSCc1c(C(F)F)ccc(C(=O)Nc2nnnn2CC)c1Cl [Example 2-323] |  | 100% | 100% |  | 100% | 100% | 100% |  | 100% |  |  |  |  |  |  | 
CCn1nnnc1NC(=O)c1ccc(C(F)F)c(CS(=O)(=O)CC)c1Cl [Example 2-325] |  | 100% | 100% |  |  | 100% | 100% |  |  |  | 100 |  |  | 100 |  | 
CCn1nnnc1NC(=O)c1ccc(C(F)(F)F)c(C[S+]([O-])CC)c1Br (stereo not drawn) [Example 2-384] |  | 100% | 90% |  | 90% | 100% | 100% |  | 90% |  |  |  |  |  |  | 
CCn1nnnc1NC(=O)c1ccc(C(F)(F)F)c(CS(=O)(=O)CC)c1Br [Example 2-385] |  | 100% | 100% |  | 90% | 100% | 100% |  | 90% |  |  |  |  |  |  | 
CCCn1nnnc1NC(=O)c1ccc(C(F)(F)F)c(CS(C)(=O)=O)c1Cl [Example 3-298] |  | 100% | 80% |  |  | 90% | 100% |  |  |  | 80 |  |  | 90 |  | 
CCCn1nnnc1NC(=O)c1ccc(C(F)F)c(CS(C)(=O)=O)c1Cl [Example 3-322] |  | 100% | 100% |  |  | 80% | 100% |  |  |  | 80 |  |  | 100 |  | 
